Reference: ChEMBL document CHEMBL1201862, “PubChem BioAssay data set” (2004)
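Values below derive from 48-hour exposures of cells grown in 96-well plates, with endpoints linearly interpolated between the two concentrations bracketing the appropriate inhibition level. GI50 is the concentration that inhibits growth by half.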 Activity calls are given as the source filed them. Cut-off read from the data, not from the text of the source: active = GI50 up to about 1.1 µM and inactive = higher.

Key:
Experiment in all cases: inhibition of tumour cell growth, NCI panel, 48 h
ACHN = system: ACHN
CCRF-CEM = system: CCRF-CEM
EKVX = system: EKVX
HCC 2998 = system: HCC 2998
HCT-15 = system: HCT-15
HT-29 = system: HT-29
M14 = system: M14
Malme-3M = system: Malme-3M
NCI-H522 = system: NCI-H522
OVCAR-3 = system: OVCAR-3
RXF 393 = system: RXF 393
SF-295 = system: SF-295
SF-539 = system: SF-539
SK-MEL-5 = system: SK-MEL-5
TK-10 = system: TK-10
DU-145 = system: DU-145
MDA-MB-231 = system: MDA-MB-231
PC-3 = system: PC-3
MDA-N = system: MDA-N

Question: What does the source list for `COc1cc([C@@H]2c3cc4c(cc3[C@@H](NC(=O)c3ccc(N)cc3)C3COC(=O)[C@@H]32)OCO4)cc(OC)c1O` (some centres undefined)?
Answer: GI50 (ACHN): 0.597 µM (active); GI50 (CCRF-CEM): 0.292 µM (active); GI50 (EKVX): 3.62 µM (inactive); GI50 (HCC 2998): 3.61 µM (inactive); GI50 (HCT-15): 12.6 µM; GI50 (HT-29): 2.41 µM (inactive); GI50 (M14): 2.72 µM (inactive); GI50 (Malme-3M): 2.51 µM (inactive); GI50 (NCI-H522): 1.75 µM (inactive); GI50 (OVCAR-3): 7.46 µM (inactive); GI50 (RXF 393): 15.7 µM (inactive); GI50 (SF-295): 1.98 µM (inactive); GI50 (SF-539): 1.02 µM (active); GI50 (SK-MEL-5): 2.81 µM (inactive); GI50 (TK-10): 9.68 µM (inactive)

Question: What does the source list for `COC12OCCN(CCO)C1=CC(=O)C1(C)N=NC(C)C12` (centres undefined)?
Answer: GI50 (ACHN): > 100 µM (inactive); GI50 (CCRF-CEM): > 100 µM (inactive); GI50 (EKVX): > 100 µM (inactive); GI50 (HCC 2998): > 100 µM (inactive); GI50 (HCT-15): > 100 µM; GI50 (HT-29): > 100 µM (inactive); GI50 (M14): > 100 µM (inactive); GI50 (Malme-3M): > 100 µM (inactive); GI50 (NCI-H522): > 100 µM (inactive); GI50 (OVCAR-3): > 100 µM (inactive); GI50 (RXF 393): > 100 µM (inactive); GI50 (SF-295): > 100 µM (inactive); GI50 (SF-539): > 100 µM (inactive); GI50 (SK-MEL-5): > 100 µM (inactive); GI50 (TK-10): > 100 µM (inactive)

Question: How did the GI50 (ACHN) turn out when `O=C1CCSC(=S)N1c1ccc(Br)c(Cl)c1` was run?
Answer: The GI50 was 21.6 µM (inactive).

Question: And the GI50 (CCRF-CEM)?
Answer: The GI50 was 60.5 µM (inactive).

Question: And the GI50 (DU-145)?
Answer: The GI50 was 43.8 µM (inactive).

Question: And the GI50 (EKVX)?
Answer: The GI50 was 44.8 µM (inactive).

Question: And the GI50 (HCT-15)?
Answer: The GI50 was 20.4 µM.

Question: What about the GI50 (HT-29) of the same compound?
Answer: Its GI50 is 16.1 µM (inactive).

Question: And the GI50 (M14)?
Answer: The GI50 was 58.1 µM (inactive).

Question: What about the GI50 (MDA-MB-231) of the same compound?
Answer: The GI50 was 29 µM (inactive).

Question: And the GI50 (Malme-3M)?
Answer: The GI50 was 22.9 µM (inactive).

Question: What about the GI50 (NCI-H522) of the same compound?
Answer: The GI50 was 21 µM (inactive).

Question: What about the GI50 (OVCAR-3) of the same compound?
Answer: The GI50 was 37.6 µM (inactive).

Question: And the GI50 (PC-3)?
Answer: Its GI50 is 34.5 µM (inactive).

Question: What about the GI50 (RXF 393) of the same compound?
Answer: The GI50 was 20.1 µM (inactive).

Question: What about the GI50 (SF-295) of the same compound?
Answer: Its GI50 is 32.7 µM (inactive).

Question: And the GI50 (SF-539)?
Answer: Its GI50 is 33 µM (inactive).

Question: And the GI50 (SK-MEL-5)?
Answer: Its GI50 is 18.4 µM (inactive).

Question: And the GI50 (TK-10)?
Answer: Its GI50 is 30.2 µM (inactive).

Question: What does the source list for `CSCC1CC(c2ccc(Cl)cc2)=NO1` (centres undefined)?
Answer: GI50 (ACHN): > 100 µM (inactive); GI50 (CCRF-CEM): > 100 µM (inactive); GI50 (EKVX): > 100 µM (inactive); GI50 (HCC 2998): > 100 µM (inactive); GI50 (HCT-15): > 100 µM; GI50 (HT-29): > 100 µM (inactive); GI50 (M14): > 100 µM (inactive); GI50 (Malme-3M): > 100 µM (inactive); GI50 (NCI-H522): > 100 µM (inactive); GI50 (OVCAR-3): > 100 µM (inactive); GI50 (SF-295): > 100 µM (inactive); GI50 (SF-539): > 100 µM (inactive); GI50 (SK-MEL-5): > 100 µM (inactive); GI50 (TK-10): > 100 µM (inactive)

Question: `O=C(CC(=O)C(F)(F)F)c1csc2ccccc12` was tested. Which GI50 (ACHN) did it give?
Answer: Its GI50 is 34.5 µM (inactive).

Question: And the GI50 (CCRF-CEM)?
Answer: Its GI50 is 20.4 µM (inactive).

Question: And the GI50 (EKVX)?
Answer: Its GI50 is 33.4 µM (inactive).

Question: And the GI50 (HCC 2998)?
Answer: The GI50 was 48.9 µM (inactive).

Question: What about the GI50 (HCT-15) of the same compound?
Answer: The GI50 was 29.2 µM.

Question: And the GI50 (M14)?
Answer: The GI50 was 23.6 µM (inactive).

Question: What about the GI50 (Malme-3M) of the same compound?
Answer: Its GI50 is 26.4 µM (inactive).

Question: And the GI50 (NCI-H522)?
Answer: Its GI50 is 23.9 µM (inactive).

Question: What about the GI50 (OVCAR-3) of the same compound?
Answer: Its GI50 is 40.9 µM (inactive).

Question: What about the GI50 (RXF 393) of the same compound?
Answer: Its GI50 is 3.13 µM (inactive).

Question: And the GI50 (SF-295)?
Answer: Its GI50 is 10.4 µM (inactive).

Question: What about the GI50 (SF-539) of the same compound?
Answer: Its GI50 is 31.6 µM (inactive).

Question: And the GI50 (SK-MEL-5)?
Answer: The GI50 was 26.9 µM (inactive).

Question: And the GI50 (TK-10)?
Answer: The GI50 was 4.28 µM (inactive).

Question: With `CSc1ncc2c(n1)-c1ccccc1OC2NC(C)(C)C` (centres undefined) as the compound, how does the GI50 (ACHN) read?
Answer: Its GI50 is 92.9 µM (inactive).

Question: What about the GI50 (CCRF-CEM) of the same compound?
Answer: Its GI50 is 91.4 µM (inactive).

Question: What about the GI50 (DU-145) of the same compound?
Answer: Its GI50 is > 100 µM (inactive).

Question: And the GI50 (EKVX)?
Answer: The GI50 was 29 µM (inactive).

Question: What about the GI50 (HCC 2998) of the same compound?
Answer: Its GI50 is 21.3 µM (inactive).

Question: And the GI50 (HCT-15)?
Answer: The GI50 was greater than 100 µM.

Question: What about the GI50 (HT-29) of the same compound?
Answer: The GI50 was 77.6 µM (inactive).

Question: What about the GI50 (M14) of the same compound?
Answer: Its GI50 is > 100 µM (inactive).

Question: What about the GI50 (MDA-MB-231) of the same compound?
Answer: The GI50 was > 100 µM (inactive).

Question: And the GI50 (Malme-3M)?
Answer: Its GI50 is > 100 µM (inactive).

Question: And the GI50 (NCI-H522)?
Answer: The GI50 was 27.8 µM (inactive).

Question: And the GI50 (OVCAR-3)?
Answer: The GI50 was > 100 µM (inactive).

Question: And the GI50 (PC-3)?
Answer: The GI50 was > 100 µM (inactive).

Question: What about the GI50 (RXF 393) of the same compound?
Answer: Its GI50 is 98.4 µM (inactive).

Question: And the GI50 (SF-295)?
Answer: Its GI50 is 47.3 µM (inactive).

Question: What about the GI50 (SF-539) of the same compound?
Answer: Its GI50 is > 100 µM (inactive).

Question: What about the GI50 (TK-10) of the same compound?
Answer: The GI50 was 33.9 µM (inactive).

Question: Which results are given for `O=c1oc2c3ccc4ccccc4c3n(CCN3CCOCC3)c2c2ccccc12`?
Answer: GI50 (ACHN): 5.6 µM (inactive); GI50 (CCRF-CEM): 1.48 µM (inactive); GI50 (EKVX): 14.8 µM (inactive); GI50 (HCC 2998): > 100 µM (inactive); GI50 (HT-29): 27.4 µM (inactive); GI50 (M14): 58.5 µM (inactive); GI50 (Malme-3M): > 100 µM (inactive); GI50 (NCI-H522): 2.48 µM (inactive); GI50 (OVCAR-3): > 100 µM (inactive); GI50 (SF-295): 6.38 µM (inactive); GI50 (SF-539): 3.76 µM (inactive); GI50 (TK-10): > 100 µM (inactive)

Question: Which results are given for `CC(C)(C)OC(=O)NCC(CNC(=O)OC(C)(C)C)C(N)=O`?
Answer: GI50 (ACHN): > 100 µM (inactive); GI50 (CCRF-CEM): > 100 µM (inactive); GI50 (DU-145): > 100 µM (inactive); GI50 (EKVX): > 100 µM (inactive); GI50 (HCC 2998): > 100 µM (inactive); GI50 (HCT-15): > 100 µM; GI50 (HT-29): > 100 µM (inactive); GI50 (M14): > 100 µM (inactive); GI50 (MDA-MB-231): > 100 µM (inactive); GI50 (Malme-3M): > 100 µM (inactive); GI50 (NCI-H522): > 100 µM (inactive); GI50 (OVCAR-3): > 100 µM (inactive); GI50 (PC-3): > 100 µM (inactive); GI50 (RXF 393): > 100 µM (inactive); GI50 (SF-295): > 100 µM (inactive); GI50 (SF-539): > 100 µM (inactive); GI50 (SK-MEL-5): > 100 µM (inactive); GI50 (TK-10): > 100 µM (inactive)

Question: What does the source list for `Nc1ncnc2c1nc(Cl)n2C1OC2COP(=O)(O)OC2C1O` (centres undefined)?
Answer: GI50 (ACHN): 4.99 µM (inactive); GI50 (CCRF-CEM): 1.29 µM (inactive); GI50 (DU-145): 6.67 µM (inactive); GI50 (EKVX): 22.4 µM (inactive); GI50 (HCC 2998): 38.9 µM (inactive); GI50 (HCT-15): 3.76 µM; GI50 (HT-29): 4.57 µM (inactive); GI50 (M14): 6.25 µM (inactive); GI50 (MDA-N): 6.43 µM (inactive); GI50 (Malme-3M): 37 µM (inactive); GI50 (NCI-H522): 3.63 µM (inactive); GI50 (OVCAR-3): 12.2 µM (inactive); GI50 (RXF 393): 3.15 µM (inactive); GI50 (SF-295): > 35.4 µM (inactive); GI50 (SF-539): 26.8 µM (inactive); GI50 (SK-MEL-5): > 47.4 µM (inactive); GI50 (TK-10): 6.49 µM (inactive)
